Assay results: paper PMC10910532, “Structure of the GDP-bound state of the SRP GTPase FlhF” (Acta Crystallographica. Section F, Structural Biology …, 2024)

Target: T1, NG-FlhF (Shewanella putrefaciens, UniProt A4Y8J9)
T1 construct: gene Sputcn32_2561; NG domain, residues 174-460, C-terminal His6 tag, recombinant from E. coli BL21(DE3), monomer; residues 183-437 modelled
T1 sequence (A4Y8J9 174-460): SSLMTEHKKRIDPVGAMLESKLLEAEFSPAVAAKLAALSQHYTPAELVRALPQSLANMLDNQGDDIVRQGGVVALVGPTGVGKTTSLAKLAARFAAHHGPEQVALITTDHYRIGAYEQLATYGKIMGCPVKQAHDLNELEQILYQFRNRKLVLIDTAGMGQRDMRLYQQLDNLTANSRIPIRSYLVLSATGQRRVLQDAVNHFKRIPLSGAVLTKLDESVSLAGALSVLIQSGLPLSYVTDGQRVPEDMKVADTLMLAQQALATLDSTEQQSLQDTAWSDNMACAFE
Experiment: X-ray crystal structure
Assay type: binding
Conditions: 5 mM GDP pre-incubated with protein; crystallised at pH 5.0, 20 °C; nucleotide site, no Mg2+ in active site

Compound: Nc1nc2c(ncn2[C@@H]2O[C@H](COP(=O)(O)OP(=O)(O)O)[C@@H](O)[C@H]2O)c(=O)[nH]1 [GDP]
- X-ray crystal structure: Density which could unambiguously be assigned to GDP was found in the active center
